According to patent US11656182B2, “Method, composition, and chip for detecting analyte in blood sample” (TERUMO KABUSHIKI KAISHA, priority 2016, dated 2023):
In brackets after ≈: the same amount, converted by molar mass. Entries after “also recorded” stand apart in the source; their conditions may differ. Where two headings read alike, the source gives them in different places.

Legend:
[1] = Spectrum analysis of detection chip before blood sample is deposited (transmittance of refractive index adjuster at 650 nm); format: physicochemical; conditions: absorption peak wavelength of WST-4
Method: The outline of an evaluation system used in spectrum analysis will be described below. Further, the outline of the evaluation system is illustrated in FIG. 6.
Light source: Halogen light source SPL-2H (KLV Co., Ltd.)
Conforming fiber: Core diameter=200μ or more
Spectrometer: Small fiber optical spectrometer USB2000+(Ocean Optics, Inc.)
The spectrum analysis was performed using the blood glucose value detection chips obtained in each of Embodiments and Comparative Embodiments. Incidentally, since the spacer thickness of the blood glucose value detection chip is 50 μm, the optical path length becomes 50 μm. […] Incidentally, the correction of the absorbance was performed by dividing the absorbance (actual measurement value) in each measurement wavelength by the value of the clearance (CL) (μm) actually measured in each chip and further multiplying the obtained value by […].
In the conditions of respective Embodiments and Comparative Embodiments, the value of absorbance at 650 nm (the absorption peak wavelength of WST-4) measured using the chip before the blood sample is deposited is not substantially different from the absorbance value measured by dissolving the refractive index adjuster in water and setting an optical path length of 50 μm. Therefore, from the transmittance curve before the blood sample is deposited, the transmittance of the refractive index adjuster in 650 nm that is the absorption peak wavelength of WST-4 was obtained. Incidentally, in Table 1, “⊙” represents that the transmittance at 650 nm is 60% or more and 100% or less, “◯” represents that the transmittance at 650 nm is 40% or more and less than 60%, and “X” represents that the transmittance at 650 nm is less than 40%.

[2] = Precipitates by visual inspection before drying after coating film formation; format: physicochemical; conditions: coating liquid
Text: In the production step of the blood glucose value detection chip, existence of precipitates was confirmed by visual inspection before drying after coating film formation.

[3] = Degree of solubility with respect to water at 20° C.; format: physicochemical
[4] = Solubility observed in preparation of coating liquid and chip (Comparative Embodiments)
Text: Further, the solubility with respect to the blood sample was low, so that the spectrum analysis was not able to be performed.

[5] = Refractive index increasing capability of refractive index adjuster (refractometer, aqueous solutions); format: physicochemical; conditions: increase amount of the refractive index per 1 [mg/ml]; inclination of approximate straight line, aqueous solutions 0 to 350 mg/ml
Method: Aqueous solutions prepared to have a plurality of concentrations within a range of 0 to 350 mg/ml were prepared for the respective refractive index adjusters. The refractive index of each aqueous solution was obtained with a refractometer PAL-RI (ATAGO CO., LTD.). A graph was created in which the concentration of each aqueous solution is plotted on the horizontal axis and the refractive index is plotted for each refractive index adjuster on the vertical axis, and the inclination of the approximate straight line was obtained (a value of “Refractive index increasing capability” in Table 1 indicates an increase amount of the refractive index per 1 [mg/ml], and a larger inclination indicates higher refractive index increasing capability of the refractive index adjuster). Incidentally, “unmeasurable” in Table 1 means that an aqueous solution could not be prepared due to generation of precipitates.

red blood cell = experiment: Red blood cell reducing capability of refractive index adjuster (hematocrit value change); format: cell-based; conditions: 50 mM in blood sample, hematocrit value 40 before addition, 5 minutes after mixing
Method: 400 μL of blood plasma was recovered from 1.0 ml of blood sample (hematocrit value: 40). A refractive index adjuster was added to 400 μL of the recovered blood plasma to have a concentration of 125 mM. The blood plasma after addition of the refractive index adjuster combined with the original blood sample and mixed by inverting (the concentration of the refractive index adjuster in the blood sample becoming 50 mM). The sample after 5 minutes from mixing by inverting was filled in a hematocrit tube and was separated by centrifugation with a hematocrit centrifuge at 11×10^3 rpm for 5 minutes. A hematocrit value (Ht) after separation by centrifugation was read. […] Incidentally, “unmeasurable” in Table 1 means that the degree of solubility of the refractive index adjuster was low so that measurement could not be performed.

[6] = chip with coating liquid, blood sample

| Compound | Transmittance 650 nm (Coloring reagent absorption peak wavelength) [1] | Precipitates [2] | Degree of solubility (class) [3] | solubility with respect to the blood sample [4] | solubility with respect to water [4] | Refractive index increasing capability [5] | Red blood cell reducing capability (ΔHt) (red blood cell) | Degree of solubility [3] [mM] | solubility [3] [mM] | solubility with respect to the blood sample [4, 6] |
| --- | --- | --- | --- | --- | --- | --- | --- | --- | --- | --- |
| CCN(CC)c1ccc(C(=C2C=CC(=[N+](CC)CC)C=C2)c2ccc(S(=O)(=O)[O-])cc2S(=O)(=O)[O-])cc1.[Na+] [Acid Blue 1, reference compound] | × | precipitates were generated; also recorded: Present | × | low | low | – | – | – | – | – |
| O=S(=O)([O-])c1ccc2c(N=Nc3ccc(S(=O)(=O)[O-])c4ccccc34)c(O)c(S(=O)(=O)[O-])cc2c1.[Na+].[Na+].[Na+] [Acid Red 27] | ◯ (the transmittance at 650 nm is 40% or more and less than 60%) | Absent | – | – | – | 0.000381 | 6.7 | 83 | – | – |
| O=C([O-])C1=NN(c2ccc(S(=O)(=O)[O-])cc2)C(=O)C1N=Nc1ccc(S(=O)(=O)[O-])cc1.[Na+].[Na+].[Na+] (centres unmarked) [Acid Yellow 23] | ⊙ (the transmittance at 650 nm is 60% or more and 100% or less) | Absent | – | – | – | 0.000277 | 8.2 | 487 | – | – |
| O=S(=O)(O)c1cccc(S(=O)(=O)O)c1 [DSB, 1,3-benzene disulfonate] | ⊙ (the transmittance at 650 nm is 60% or more and 100% or less) | Absent | – | – | – | 0.000126 | 9.0 | – | – | – |
| O=S(=O)(O)c1cc(S(=O)(=O)O)c2c(/N=N/c3ccccc3)c(O)ccc2c1 [Orange G] | ⊙ (the transmittance at 650 nm is 60% or more and 100% or less) | Absent | – | – | – | 0.000296 | 1.9 | 220 | – | – |
| OC[C@H]1O[C@H](O[C@]2(CCl)O[C@H](CCl)[C@@H](O)[C@@H]2O)[C@H](O)[C@@H](O)[C@H]1Cl [Sucralose, sucralose] | ⊙ (the transmittance at 650 nm is 60% or more and 100% or less) | Absent | – | – | – | 0.000129 | 0.5 | – | 820 (≈ 326 mg/mL) | – |
| OC[C@H]1O[C@H](O[C@H]2O[C@H](CO)[C@@H](O)[C@H](O)[C@H]2O)[C@H](O)[C@@H](O)[C@@H]1O [Trehalose, trehalose] | ⊙ (the transmittance at 650 nm is 60% or more and 100% or less) | Absent | – | – | – | 0.000109 | 3.5 | – | 200 (≈ 68.5 mg/mL) | – |
| O=[N+]([O-])c1ccc(-[n+]2nc(-c3ccc(S(=O)(=O)[O-])cc3S(=O)(=O)[O-])nn2-c2ccc(I)cc2)cc1.[Na+] [Wst-1, 2-(4-iodophenyl)-3-(4-nitrophenyl)-5-(2,4-disulfophenyl)-2H-tetrazolium sodium salt, reference compound] | × | Absent | – | – | – | 0.000174 | – | – | – | low |
| COc1cc([N+](=O)[O-])ccc1-n1nc(-c2ccc(S(=O)(=O)[O-])cc2S(=O)(=O)[O-])n[n+]1-c1ccc([N+](=O)[O-])cc1.[Na+] [Wst-8, 2-(2-methoxy-4-nitrophenyl)-3-(4-nitrophenyl)-5-(2,4-disulfophenyl)-2H-tetrazolium sodium salt, reference compound] | × | Absent | – | – | – | 0.000189 | – | – | – | low |
| Acid Fuchsin [reference compound] | × | Absent | – | – | – | 0.000259 | 14.3 | 340 | – | – |
